Laboratory results reported in ChEMBL document CHEMBL1155822, “Inhibition of acetylcholinesterase, beta-amyloid aggregation, and NMDA receptors in Alzheimer's disease: a promising direction for the multi-target-directed ligands gold rush” (J Med Chem, 2008).

Experiments:
SH-SY5Y = experiment: Antioxidant activity against tert-butyl hydroperoxide-induced ROS evoked cell death in human SH-SY5Y cells; assay type: functional, cell-based
[1] = molecular target: Glutamate NMDA receptor; GRIN1/GRIN2B (Homo sapiens, UniProt Q05586+Q13224)
Chain of Glutamate NMDA receptor; GRIN1/GRIN2B (Q13224 whole entry, other chains not shown): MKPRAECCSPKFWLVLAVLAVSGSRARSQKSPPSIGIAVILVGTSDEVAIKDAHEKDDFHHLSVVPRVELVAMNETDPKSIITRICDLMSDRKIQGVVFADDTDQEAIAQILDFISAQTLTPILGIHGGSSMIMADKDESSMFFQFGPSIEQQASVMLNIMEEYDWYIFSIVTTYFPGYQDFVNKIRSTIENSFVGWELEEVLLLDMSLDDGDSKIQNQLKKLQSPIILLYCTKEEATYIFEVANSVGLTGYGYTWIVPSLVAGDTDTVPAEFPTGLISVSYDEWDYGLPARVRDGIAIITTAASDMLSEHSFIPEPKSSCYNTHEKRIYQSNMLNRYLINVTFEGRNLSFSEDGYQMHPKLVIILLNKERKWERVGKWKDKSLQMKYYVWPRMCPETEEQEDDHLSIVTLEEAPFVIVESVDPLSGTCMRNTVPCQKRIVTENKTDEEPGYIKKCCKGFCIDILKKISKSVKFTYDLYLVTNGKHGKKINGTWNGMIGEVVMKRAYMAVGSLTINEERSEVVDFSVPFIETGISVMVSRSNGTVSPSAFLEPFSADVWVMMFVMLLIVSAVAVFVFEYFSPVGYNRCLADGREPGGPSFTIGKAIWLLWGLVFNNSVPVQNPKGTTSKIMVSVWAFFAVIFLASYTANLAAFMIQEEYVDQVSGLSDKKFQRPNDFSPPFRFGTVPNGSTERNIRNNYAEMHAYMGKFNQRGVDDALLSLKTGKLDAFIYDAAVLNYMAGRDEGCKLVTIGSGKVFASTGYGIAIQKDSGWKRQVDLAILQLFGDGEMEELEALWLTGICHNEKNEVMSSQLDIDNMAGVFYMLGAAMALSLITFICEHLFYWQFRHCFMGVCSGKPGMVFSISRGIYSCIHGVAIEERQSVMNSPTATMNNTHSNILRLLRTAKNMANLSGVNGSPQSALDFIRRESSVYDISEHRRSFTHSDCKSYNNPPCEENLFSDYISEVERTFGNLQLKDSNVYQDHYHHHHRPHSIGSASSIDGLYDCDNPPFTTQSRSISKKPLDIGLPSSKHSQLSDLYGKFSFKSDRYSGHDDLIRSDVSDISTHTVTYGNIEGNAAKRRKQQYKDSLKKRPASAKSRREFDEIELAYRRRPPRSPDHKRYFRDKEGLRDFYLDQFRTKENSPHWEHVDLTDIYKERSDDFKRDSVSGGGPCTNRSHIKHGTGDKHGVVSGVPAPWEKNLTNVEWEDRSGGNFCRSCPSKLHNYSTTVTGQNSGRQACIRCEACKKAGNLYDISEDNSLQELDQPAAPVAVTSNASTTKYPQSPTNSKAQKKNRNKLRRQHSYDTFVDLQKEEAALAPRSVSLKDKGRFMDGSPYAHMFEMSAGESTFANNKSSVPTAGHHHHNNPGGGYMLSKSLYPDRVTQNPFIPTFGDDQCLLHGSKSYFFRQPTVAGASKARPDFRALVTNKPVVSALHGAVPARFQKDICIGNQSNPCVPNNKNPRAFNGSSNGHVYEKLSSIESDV
Description: Inhibition of NMDA NR1/NR2B receptor expressed in xenopus oocytes assessed as inhibition of NMDA and glycine-induced current response by two-electrode voltage clamp assay

Acetylcholinesterase = Acetylcholinesterase (Homo sapiens, UniProt P22303)
Chain of Acetylcholinesterase (P22303 whole entry): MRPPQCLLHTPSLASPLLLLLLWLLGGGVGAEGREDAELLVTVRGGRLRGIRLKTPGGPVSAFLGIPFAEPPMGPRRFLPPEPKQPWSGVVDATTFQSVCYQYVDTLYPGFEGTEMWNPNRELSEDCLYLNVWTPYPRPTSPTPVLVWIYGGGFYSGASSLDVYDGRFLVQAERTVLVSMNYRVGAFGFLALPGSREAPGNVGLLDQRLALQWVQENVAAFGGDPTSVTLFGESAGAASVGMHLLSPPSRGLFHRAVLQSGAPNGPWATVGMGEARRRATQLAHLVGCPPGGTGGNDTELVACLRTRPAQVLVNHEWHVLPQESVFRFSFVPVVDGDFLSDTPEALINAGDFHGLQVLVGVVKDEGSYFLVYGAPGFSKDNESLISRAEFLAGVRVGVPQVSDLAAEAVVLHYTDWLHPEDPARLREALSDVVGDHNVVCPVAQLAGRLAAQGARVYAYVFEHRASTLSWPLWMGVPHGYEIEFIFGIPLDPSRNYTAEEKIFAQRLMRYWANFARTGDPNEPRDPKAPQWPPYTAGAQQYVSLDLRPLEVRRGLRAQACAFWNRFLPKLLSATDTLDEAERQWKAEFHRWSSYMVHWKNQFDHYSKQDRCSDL
Description: Inhibition of human recombinant AChE by Ellman's method

Cholinesterase = Cholinesterase (Homo sapiens, UniProt P06276); experiment: Inhibition of human serum BChE by Ellman's method
Chain of Cholinesterase (P06276 whole entry): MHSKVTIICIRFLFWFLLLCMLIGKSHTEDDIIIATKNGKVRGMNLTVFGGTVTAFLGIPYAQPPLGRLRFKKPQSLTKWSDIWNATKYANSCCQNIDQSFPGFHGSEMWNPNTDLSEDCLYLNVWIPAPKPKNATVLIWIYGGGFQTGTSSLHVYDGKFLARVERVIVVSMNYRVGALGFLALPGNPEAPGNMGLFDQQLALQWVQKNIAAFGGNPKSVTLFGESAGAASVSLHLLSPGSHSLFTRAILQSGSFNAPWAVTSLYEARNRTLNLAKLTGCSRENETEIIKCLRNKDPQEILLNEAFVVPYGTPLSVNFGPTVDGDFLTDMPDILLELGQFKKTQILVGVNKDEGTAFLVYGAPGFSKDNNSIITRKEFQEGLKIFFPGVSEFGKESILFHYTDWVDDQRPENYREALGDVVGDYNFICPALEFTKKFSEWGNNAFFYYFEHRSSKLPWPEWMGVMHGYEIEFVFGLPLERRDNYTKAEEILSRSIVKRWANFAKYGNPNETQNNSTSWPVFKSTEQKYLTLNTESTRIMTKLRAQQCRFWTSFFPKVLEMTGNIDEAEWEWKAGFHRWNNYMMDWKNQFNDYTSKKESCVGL

Compound: Oc1cccc2[nH]c3ccccc3c12
- IC50 (SH-SY5Y): 70 nM

Compound: Clc1ccc2c(NCCCNCCCCCOc3cccc4[nH]c5ccccc5c34)c3c(nc2c1)CCCC3
- IC50 [1]: 18200 nM
- IC50 (Acetylcholinesterase): 1.54 nM
- IC50 (Cholinesterase): 189 nM

Compound: Clc1ccc2c(NCCCNCCCOc3cccc4[nH]c5ccccc5c34)c3c(nc2c1)CCCC3 [CARBACRINE]
- IC50 [1]: 740 nM
- IC50 (SH-SY5Y): 23000 nM
- IC50 (Acetylcholinesterase): 2.15 nM
- IC50 (Cholinesterase): 296 nM

Compound: Cc1c(C)c2c(c(C)c1O)CCC(C)(C(=O)O)O2 (stereo not given) [TROLOX]
- IC50 (SH-SY5Y): 49600 nM

Compound: Clc1ccc2c(NCCCNCCCCOc3cccc4[nH]c5ccccc5c34)c3c(nc2c1)CCCC3
- IC50 [1]: 30300 nM
- IC50 (Acetylcholinesterase): 1.65 nM
- IC50 (Cholinesterase): 211 nM

Compound: Clc1ccc2c(NCCCNCCCCCCOc3cccc4[nH]c5ccccc5c34)c3c(nc2c1)CCCC3
- IC50 [1]: 13000 nM
- IC50 (Acetylcholinesterase): 2.57 nM
- IC50 (Cholinesterase): 137 nM
